The values that follow come from patent US20240166665A1, “COVALENT EGFR INHIBITORS AND METHODS OF USE THEREOF” (Dana-Farber Cancer Institute, Inc., priority 2021, published 2024).

In experiment [1] the test system is NSCLC that have developed resistance to gefitinib or erlotinib. The settings on record: patients with NSCLC resistant to gefitinib or erlotinib; cited from earlier work.
For the next experiment, the system named is BaF3 EGFR L858R/C797S. The experiment in a line: Ba/F3 cell proliferation (Cell Titer Glo). Particulars: Mus musculus, 72 hours exposure. Format: cell-based, murine. An excerpt: (§1) The EGFR mutant L858R Ba/F3 cells have been previously described (Zhou, W., et al. Nature 462, 2009, 1070-1074). The EGFR C797S and C775S mutations were introduced via site directed mutagenesis using the Quick Change Site-Directed Mutagenesis kit into a vector containing EGFR L858R mutation (Stratagene; La Jolla, CA) according to the manufacturers instructions. All constructs were confirmed by DNA sequencing. The constructs were then shuttled into the retroviral vector JP1540 by either using the Cre-recombination system (Agilent Technologies, Santa Clara, CA) or the In-fusion HD Cloning kit (TakaR^a Bio USA, Inc.; Mountain view, CA). Ba/F3 cells were then infected with retrovirus per standard protocols, as described previously (Zhou, et al, Nature 2009). Stable clones were obtained by selection in puromycin (2 μg/ml). All BaF/3 mutant cells were maintained in RPMI 1640 (Cellgro; Mediatech Inc., Herndon, CA) supplemented with 10% FBS, 100 units/mL penicillin, 100 units/mL streptomycin.
(§2) Growth and inhibition of growth was assessed by the Cell Titer Glo assay (Promega, Madison, WI) and was performed according to the manufacturer's instructions. The Cell Titer Glo assay is a luminescence-based method used to determine the number of viable cells based on quantitation of the ATP present, which is directly proportional to the amount of metabolically active cells present. Ba/F3 cells of different EGFR genotypes were exposed to compounds for 72 hours and the number of cells used per experiment was determined empirically as has been previously established (Zhou, et al., Nature 2009). All experimental points were set up in triplicates in 384-well plates. […] The curves were fitted using a non-linear regression model with a sigmoidal dose response.

A further experiment relates to BaF3 EGFR L858R. The experiment in a line: Ba/F3 cell proliferation (Cell Titer Glo). Format: cell-based, murine. Particulars: Mus musculus, 72 hours exposure.
Excerpt: as §1, §2
In general terms: In ATP-based viability assays light output follows the ATP content of the culture.

In experiment [2] the target is T1, EGFR L858R/T790M (Homo sapiens (Human), UniProt P00533, L858R/T790M). The experiment in a line: HTRF-based EGFR biochemical assay. The settings on record: 100 μM ATP, 30 min preincubation, enzyme 0.02 nM. The method, then: (§3) EGFR biochemical activity measurements were carried out using the homogeneous time-resolved fluorescence (HTRF) assay (Cisbio). Inhibitors and DMSO normalizations were first dispensed to empty black low-volume 384-well plates (Corning) with D300 digital liquid dispenser (HP). All reactions were carried out at room temperature and solutions were added to plates with a Multidrop Combi Reagent Dispenser (ThermoFisher). The reaction mixture (10 μL final volume) contained 1 μM tyrosine kinase peptide-biotin substrate and mutant EGFR in a reaction buffer (50 mM HEPES pH 7.0, 5 mM MgCl2, 1 mM MnCl2, 0.01% BSA, 2 mM TCEP, 0.1 mM NaVO4). Enzyme concentrations were adjusted to accommodate varying kinase activities (L858R^0.1 nM, L858R/T790M 0.02 nM). Enzyme reaction solution (2× concentrations, 5 μL) was added to 384-well plates containing compounds and incubated for 30 mins. Enzyme reactions were initiated with the addition of 5 μL of ATP to a final concentration of 100 μM and reacted for 20 mins. Reactions were quenched with the addition of 10 μL of phospho-tyrosine antibody-Europium(III) cryptate (1-to-180 volume ratio) and Streptavidin-XL665 (46.7 nM) in EDTA-containing detection buffer, then incubated at room temperature for 1 hour, and read with a PHERAstar plate reader (excitation=337 nm, emission=620 nm and 665 nm). IC50 values were determined by inhibition curves (11-point curves from 1.0 μM to 0.130 nM or 23-point curves from 1.0 μM to […]) in triplicate with non-linear least squares fit in GraphPad Prism 7.0d.
T1 sequence (P00533 25-1210 T790M/L858R): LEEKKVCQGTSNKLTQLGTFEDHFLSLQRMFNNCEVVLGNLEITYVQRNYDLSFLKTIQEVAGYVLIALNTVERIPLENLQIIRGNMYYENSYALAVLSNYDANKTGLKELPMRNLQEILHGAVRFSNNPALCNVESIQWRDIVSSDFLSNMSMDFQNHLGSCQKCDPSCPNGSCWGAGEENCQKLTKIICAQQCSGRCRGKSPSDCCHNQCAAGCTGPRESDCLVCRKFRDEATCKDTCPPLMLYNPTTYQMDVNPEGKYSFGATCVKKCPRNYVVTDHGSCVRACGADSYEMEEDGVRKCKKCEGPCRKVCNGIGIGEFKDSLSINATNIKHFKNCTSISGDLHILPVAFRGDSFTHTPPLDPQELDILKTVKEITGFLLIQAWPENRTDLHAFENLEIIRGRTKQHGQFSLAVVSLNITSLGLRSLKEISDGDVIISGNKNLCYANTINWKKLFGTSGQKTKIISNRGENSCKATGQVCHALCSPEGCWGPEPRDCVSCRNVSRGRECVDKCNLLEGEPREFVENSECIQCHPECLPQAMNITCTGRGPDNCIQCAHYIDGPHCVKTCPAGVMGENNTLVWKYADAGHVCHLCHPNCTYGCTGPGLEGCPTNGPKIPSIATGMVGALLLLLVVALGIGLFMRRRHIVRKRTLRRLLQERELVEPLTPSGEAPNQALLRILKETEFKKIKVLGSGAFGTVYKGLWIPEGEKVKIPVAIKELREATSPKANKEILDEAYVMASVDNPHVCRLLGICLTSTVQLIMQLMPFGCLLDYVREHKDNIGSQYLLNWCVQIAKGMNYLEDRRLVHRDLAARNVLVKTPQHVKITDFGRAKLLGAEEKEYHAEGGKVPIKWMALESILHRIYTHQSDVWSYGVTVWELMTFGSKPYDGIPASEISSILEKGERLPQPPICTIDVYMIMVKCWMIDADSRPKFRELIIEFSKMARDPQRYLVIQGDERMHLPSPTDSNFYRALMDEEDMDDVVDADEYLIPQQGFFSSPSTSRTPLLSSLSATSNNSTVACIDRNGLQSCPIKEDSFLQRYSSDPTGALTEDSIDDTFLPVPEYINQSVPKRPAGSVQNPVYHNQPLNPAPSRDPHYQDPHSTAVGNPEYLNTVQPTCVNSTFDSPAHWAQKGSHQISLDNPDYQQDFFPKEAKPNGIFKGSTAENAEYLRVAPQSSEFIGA
(In general: Time-resolved FRET reads energy transfer from a long-lived donor to a nearby acceptor.)

The target of another experiment is EGFR L858R (Homo sapiens (Human), UniProt P00533, L858R). The experiment is described as follows: HTRF-based EGFR biochemical assay. Particulars: 100 μM ATP, 30 min preincubation, enzyme 0.1 nM. As for the experimental part: as §3
EGFR L858R, sequence (P00533 25-1210 L858R): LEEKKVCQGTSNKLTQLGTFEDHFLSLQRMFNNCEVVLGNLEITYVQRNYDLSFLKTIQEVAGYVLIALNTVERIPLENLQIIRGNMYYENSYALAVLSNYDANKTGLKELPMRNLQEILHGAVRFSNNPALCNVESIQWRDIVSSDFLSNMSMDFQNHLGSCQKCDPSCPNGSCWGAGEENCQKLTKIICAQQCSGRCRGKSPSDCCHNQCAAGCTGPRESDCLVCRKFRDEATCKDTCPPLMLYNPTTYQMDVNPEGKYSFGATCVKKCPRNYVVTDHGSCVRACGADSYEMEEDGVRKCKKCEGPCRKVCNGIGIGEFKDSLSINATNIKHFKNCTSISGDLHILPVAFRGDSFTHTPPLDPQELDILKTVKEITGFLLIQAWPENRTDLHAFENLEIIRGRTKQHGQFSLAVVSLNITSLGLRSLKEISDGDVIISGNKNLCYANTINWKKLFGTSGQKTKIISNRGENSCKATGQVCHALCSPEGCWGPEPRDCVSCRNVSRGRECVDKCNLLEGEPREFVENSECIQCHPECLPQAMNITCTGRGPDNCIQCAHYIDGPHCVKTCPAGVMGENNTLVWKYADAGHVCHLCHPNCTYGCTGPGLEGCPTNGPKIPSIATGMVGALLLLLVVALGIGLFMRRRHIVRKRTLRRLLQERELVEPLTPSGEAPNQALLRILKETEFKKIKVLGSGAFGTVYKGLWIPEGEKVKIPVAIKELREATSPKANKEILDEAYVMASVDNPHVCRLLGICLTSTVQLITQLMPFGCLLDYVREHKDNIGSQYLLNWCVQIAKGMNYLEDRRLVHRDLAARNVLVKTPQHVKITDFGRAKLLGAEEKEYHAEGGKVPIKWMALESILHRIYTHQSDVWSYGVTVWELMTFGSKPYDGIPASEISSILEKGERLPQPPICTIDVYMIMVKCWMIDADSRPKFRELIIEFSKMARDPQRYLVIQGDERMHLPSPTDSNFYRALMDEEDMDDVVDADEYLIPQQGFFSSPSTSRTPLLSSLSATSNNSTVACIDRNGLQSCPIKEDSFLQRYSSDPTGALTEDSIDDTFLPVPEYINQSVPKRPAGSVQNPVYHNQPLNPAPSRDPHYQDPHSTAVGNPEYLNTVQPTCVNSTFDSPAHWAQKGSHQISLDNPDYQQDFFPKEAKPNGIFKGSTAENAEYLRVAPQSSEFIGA
In experiment [3] the target is EGFR L858R/T790M/C797S protein (Homo sapiens (Human), UniProt P00533, C797S/L858R/T790M). The experiment in a line: MS intact labeling assay. Format: binding. Particulars: 10-fold molar excess of compound, 2 h at 30° C., LC-MS. As for the experimental part: (§4) EGFR L858R/T790M protein (10 μg) or EGFR L858R/T790M/C797S protein was treated with DMSO or a 10-fold molar excess of compound 001 for 2 h at 30° C. and analyzed by LC-MS using an HPLC (Shimadzu, Marlborough, MA) interfaced to an LTQ ion trap mass spectrometer (ThermoFisher Scientific, San Jose, CA). Protein (5 μg) was injected onto a reversed phase column (5 cm POROS 50R2, Applied Biosystems, Foster City, CA), desalted for 4 min (100% A), and gradient eluted (0-100% B in 1 min; A=0.2 M acetic acid in water; B=0.2 M acetic acid in acetonitrile) into the mass spectrometer (spray voltage=4.8 kV). The mass spectrometer was programmed to acquire profile mass spectra (m/z 300-2000). Raw data was deconvoluted using MagTran version 1.03b2.38.
EGFR L858R/T790M/C797S protein, sequence (P00533 25-1210 T790M/C797S/L858R): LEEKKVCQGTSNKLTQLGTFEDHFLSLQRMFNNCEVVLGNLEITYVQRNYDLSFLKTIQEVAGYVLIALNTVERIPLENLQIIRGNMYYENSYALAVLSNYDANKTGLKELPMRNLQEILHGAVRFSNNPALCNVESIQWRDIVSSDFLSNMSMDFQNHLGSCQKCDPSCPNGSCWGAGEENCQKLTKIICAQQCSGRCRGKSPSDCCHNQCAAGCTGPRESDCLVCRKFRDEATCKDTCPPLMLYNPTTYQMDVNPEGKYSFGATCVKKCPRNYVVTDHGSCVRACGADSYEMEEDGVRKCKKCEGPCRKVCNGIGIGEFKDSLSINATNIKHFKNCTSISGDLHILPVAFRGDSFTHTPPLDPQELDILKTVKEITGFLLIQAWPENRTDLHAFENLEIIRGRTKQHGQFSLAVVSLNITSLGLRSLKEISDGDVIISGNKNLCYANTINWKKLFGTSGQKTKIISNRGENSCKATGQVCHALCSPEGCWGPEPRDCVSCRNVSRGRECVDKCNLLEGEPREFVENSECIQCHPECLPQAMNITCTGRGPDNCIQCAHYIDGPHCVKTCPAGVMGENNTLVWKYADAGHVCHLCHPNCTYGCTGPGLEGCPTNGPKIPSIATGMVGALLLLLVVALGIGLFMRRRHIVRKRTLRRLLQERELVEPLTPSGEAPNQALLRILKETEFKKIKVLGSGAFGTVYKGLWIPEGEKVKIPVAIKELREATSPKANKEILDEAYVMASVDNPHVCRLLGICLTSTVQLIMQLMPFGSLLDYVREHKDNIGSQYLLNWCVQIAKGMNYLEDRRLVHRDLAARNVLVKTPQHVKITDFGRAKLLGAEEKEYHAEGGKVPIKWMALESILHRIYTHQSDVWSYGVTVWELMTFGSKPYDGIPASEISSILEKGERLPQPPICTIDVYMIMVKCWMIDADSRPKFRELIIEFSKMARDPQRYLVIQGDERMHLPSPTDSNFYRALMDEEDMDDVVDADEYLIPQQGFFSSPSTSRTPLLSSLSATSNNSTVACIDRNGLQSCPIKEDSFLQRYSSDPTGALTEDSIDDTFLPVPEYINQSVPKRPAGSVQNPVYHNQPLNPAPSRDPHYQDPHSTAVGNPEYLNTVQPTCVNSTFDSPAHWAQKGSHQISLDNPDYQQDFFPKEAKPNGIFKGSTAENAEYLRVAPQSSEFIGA

Experiment [4] has as its target T1, EGFR L858R/T790M. The experiment is described as follows: MS intact labeling assay. Format: binding. Particulars: 10-fold molar excess of compound, 2 h at 30° C., LC-MS. As for the experimental part:
as §4

`CN(C)C/C=C/C(=O)Nc1cc2c(Nc3ccc(F)c(Cl)c3)ncnc2cc1O[C@H]1CCOC1` [afatinib]: the “RR (response rate)” value in experiment [1] was “less than 10%”.

In general, IC50 refers to the concentration at which inhibition is half-maximal. On to `C=CC(=O)Nc1cc2sc1-c1cnccc1OCCC[C@@H](C)Cn1c(nc3ccc(Br)cc31)NC2=O` [Compound 003], for which the IC50 in the experiment on BaF3 EGFR L858R/C797S turned out to be 4.03 µM; in the experiment on BaF3 EGFR L858R, 4.43 µM.

In the case of `C=CC(=O)Nc1cc2sc1-c1cnn(C)c1OCCC[C@@H](C)Cn1c(nc3ccc(Br)cc31)NC2=O` [Compound 002], the IC50 against EGFR L858R/T790M [2] was greater than 0.1 µM; against EGFR L858R it was greater than 0.1 µM; with BaF3 EGFR L858R/C797S, 3.58 µM; in the experiment with BaF3 EGFR L858R it was 4.42 µM.

As to `C=CC(=O)Nc1cc2cc(c1)-c1cnn(C)c1OCCC[C@@H](C)Cn1c(nc3ccc(Br)cc31)NC2=O` [Compound 001], the IC50 is greater than 0.1 µM against EGFR L858R/T790M [2], greater than 0.1 µM at EGFR L858R, 1.46 µM with BaF3 EGFR L858R/C797S and 2.9 µM in the experiment with BaF3 EGFR L858R. For the same molecule, the “Percent Labeling” value (in experiment [3]; at EGFR L858R/T790M [4]) was 80% throughout.
